Experimental data: publication PMC5075806, “SIKs control osteocyte responses to parathyroid hormone” (Nature Communications, 2016)

Experiments:
SIK3 = SIK3 (Homo sapiens, UniProt Q9Y2K2); assay: DiscoverX scanEDGE competition binding panel at […] (SIK3 listed as QSK); value in Supplementary Table […]
SIK2 = SIK2 (Homo sapiens, UniProt Q9H0K1); assay: DiscoverX competition binding assay with DNA/phage-tagged kinase, qPCR readout, Kd curves
Sequence of SIK2 (Q9H0K1 whole entry): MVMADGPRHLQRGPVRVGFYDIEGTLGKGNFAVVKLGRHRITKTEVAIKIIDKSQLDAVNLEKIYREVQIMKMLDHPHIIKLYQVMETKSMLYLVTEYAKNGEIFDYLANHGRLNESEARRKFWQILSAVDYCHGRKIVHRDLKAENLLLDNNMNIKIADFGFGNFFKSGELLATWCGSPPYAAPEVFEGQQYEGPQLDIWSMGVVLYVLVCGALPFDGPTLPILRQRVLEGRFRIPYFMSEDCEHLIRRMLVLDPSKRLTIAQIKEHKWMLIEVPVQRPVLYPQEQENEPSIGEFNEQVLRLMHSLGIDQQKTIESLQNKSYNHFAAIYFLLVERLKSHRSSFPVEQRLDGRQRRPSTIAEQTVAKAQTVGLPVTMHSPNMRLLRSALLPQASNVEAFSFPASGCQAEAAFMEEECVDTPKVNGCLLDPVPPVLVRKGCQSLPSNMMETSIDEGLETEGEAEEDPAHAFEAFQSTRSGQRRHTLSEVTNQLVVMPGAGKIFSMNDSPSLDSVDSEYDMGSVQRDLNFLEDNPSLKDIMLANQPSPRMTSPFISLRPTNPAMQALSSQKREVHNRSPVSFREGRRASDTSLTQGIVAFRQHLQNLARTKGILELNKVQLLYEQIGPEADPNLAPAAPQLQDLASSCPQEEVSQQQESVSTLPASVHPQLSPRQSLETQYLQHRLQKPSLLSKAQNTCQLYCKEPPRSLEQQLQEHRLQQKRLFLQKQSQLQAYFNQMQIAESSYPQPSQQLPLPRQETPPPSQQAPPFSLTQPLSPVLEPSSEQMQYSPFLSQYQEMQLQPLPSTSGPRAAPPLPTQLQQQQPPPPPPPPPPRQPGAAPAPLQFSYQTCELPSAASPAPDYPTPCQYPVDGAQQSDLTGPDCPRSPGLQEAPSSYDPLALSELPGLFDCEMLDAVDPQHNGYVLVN

Sequence of SIK3 (Q9Y2K2 whole entry): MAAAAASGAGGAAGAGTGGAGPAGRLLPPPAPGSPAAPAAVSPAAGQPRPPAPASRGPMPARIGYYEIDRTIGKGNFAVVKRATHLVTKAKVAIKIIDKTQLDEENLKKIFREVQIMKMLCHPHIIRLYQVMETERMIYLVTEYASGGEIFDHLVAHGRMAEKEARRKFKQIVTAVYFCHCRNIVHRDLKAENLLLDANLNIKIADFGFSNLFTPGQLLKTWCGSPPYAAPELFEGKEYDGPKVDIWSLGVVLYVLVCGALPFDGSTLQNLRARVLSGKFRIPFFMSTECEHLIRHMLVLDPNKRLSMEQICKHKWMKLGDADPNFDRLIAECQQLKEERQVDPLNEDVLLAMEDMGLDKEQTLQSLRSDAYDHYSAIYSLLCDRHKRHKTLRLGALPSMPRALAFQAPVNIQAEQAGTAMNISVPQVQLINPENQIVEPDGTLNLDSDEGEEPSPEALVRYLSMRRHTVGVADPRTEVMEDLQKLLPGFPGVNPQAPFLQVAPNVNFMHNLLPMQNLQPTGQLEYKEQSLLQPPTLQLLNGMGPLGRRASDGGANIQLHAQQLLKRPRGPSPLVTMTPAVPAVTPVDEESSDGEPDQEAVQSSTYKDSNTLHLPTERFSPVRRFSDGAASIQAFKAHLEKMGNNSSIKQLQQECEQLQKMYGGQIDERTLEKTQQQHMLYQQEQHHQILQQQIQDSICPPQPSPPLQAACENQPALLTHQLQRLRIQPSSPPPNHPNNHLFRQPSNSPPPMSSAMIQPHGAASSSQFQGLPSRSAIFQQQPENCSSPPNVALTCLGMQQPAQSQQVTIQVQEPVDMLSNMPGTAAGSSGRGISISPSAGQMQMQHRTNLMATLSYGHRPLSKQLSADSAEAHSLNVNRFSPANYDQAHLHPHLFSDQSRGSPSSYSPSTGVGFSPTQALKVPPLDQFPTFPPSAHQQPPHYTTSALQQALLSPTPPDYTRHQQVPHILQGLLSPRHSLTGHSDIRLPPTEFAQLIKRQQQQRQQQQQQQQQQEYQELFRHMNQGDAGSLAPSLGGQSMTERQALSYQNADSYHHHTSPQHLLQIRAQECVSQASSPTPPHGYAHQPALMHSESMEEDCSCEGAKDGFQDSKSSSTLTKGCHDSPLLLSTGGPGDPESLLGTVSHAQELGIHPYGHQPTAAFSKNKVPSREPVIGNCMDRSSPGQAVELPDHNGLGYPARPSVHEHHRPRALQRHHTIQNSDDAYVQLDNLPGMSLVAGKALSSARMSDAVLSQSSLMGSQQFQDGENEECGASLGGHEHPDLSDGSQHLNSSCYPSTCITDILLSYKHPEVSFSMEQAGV

Structure (SMILES): COc1ccc(N2C(=O)N(c3c(C)cccc3C)Cc3cnc(Nc4ccc(C5CCN(C)CC5)cc4OC)nc32)c(OC)c1 [YKL-05-093]
- DiscoverX scanEDGE competition binding panel at 71 nM (SIK3 listed as QSK); valu (SIK3): both inhibitors potently target SIK3 in addition to SIK2
- Kd (SIK2): 7.1 nM
